Positions count from the first letter of the chain named. Numbers in names are those of the source.
Legend:
Sgk and Erk/MAPK = assay: Subcellular localization of Sgk and Erk/MAPK in mammary tumor cells; type: cell-based; conditions: MEK inhibitor treatment
Excerpt: Sgk/MAPK interactions: new level of cross talk between GR and phosphorylation cascades. We also observed that the enzymatic activity and subcellular localization of Sgk and the Erk1/Erk2 members of the Mitogen Activated Protein Kinase (MAPK) gene family are co-regulated in a stimulus-dependent manner. […] Wild type or kinase dead forms of Sgk can be co-immunoprecipitated with Erk/MAPK from either serum- or dexamethasone-treated mammary tumor cells. […] Conversely, the forced cellular localization of ectopically expressed Sgk into the nucleus, using the NLS-Sgk, or into the cytoplasmic compartment using the wild type sgk gene, caused Erk/MAPK to co-localize with Sgk.

Sgk promoter = assay: Hyperosmotic stress stimulation of Sgk promoter and Sgk protein production; type: cell-based, mouse; conditions: sorbitol hyperosmotic stress
Excerpt: Regulation of Sgk transcription, protein utilization and enzymatic activity defines a new cellular component of the hyperosmotic stress pathway. Using mouse NMuMg nontumorigenic mammary epithelial cells, we have established that Sgk is a new component of the hyperosmotic stress response. (The key observations can be repeated in HeLa cells, MCF-7 human breast cancer cells, kidney derived cell and rat fibroblasts). […] This hyperosmotic stress regulated element can confer the hyperosmotic stress response to a heterologous promoter. […] Using a generally similar series of experiments, we have also shown that exposure of mammary epithelial cells to 40 J/m^2 UV radiation causes a rapid but transient stimulation in Sgk protein levels that peaks approximately 2 hours after this genotoxic stress.
The hyperosmotic stress cascade targets the sgk promoter by activating the p38/MAPK stress kinase. […] Co-transfection of the stress responsive Sgk-CAT reporter plasmid with a dominant negative form of MKK3, one of two upstream kinase regulators of the p38/MAPK, inhibits the sorbitol induction of the Sgk promoter.

endogenous Sgk = assay: Phosphorylation state of Sgk in treated cells; type: cell-based; conditions: treatment of cells; serum stimulated mammary tumor cells for the PI 3-kinase inhibitors
Excerpt: (§1) Cotransfection of PDK1 with Sgk caused a 6-fold activation of Sgk activity, whereas, the kinase-dead form of PDK1 had no effect. […] The Ser-78 in the amino terminal domain is a third phosphorylation site and expression of the S78G Sgk mutation ablates the presence of the slowest migrating form of phosphorylated Sgk in SDS polyacrylamide gels.

Sgk = assay: In vitro peptide kinase assay (Sgktide, [32P]ATP) of immunoprecipitated HA-Sgk; type: biochemical; conditions: for effect of cell treatment on Sgk enzymatic activity: activators or inhibitor of PI 3-kinase pathway; for kinase activity / activation of Sgk mutant: mutant forms of Sgk
Excerpt: Sgk is a component of the PI3 kinase cascade and is directly activated by PDK1 mediated phosphorylation of threonine 256 in the activation loop. […] To develop this kinase assay, lysates from human embryo kidney 293 cells transfected to express wild type hemagglutinin (HA)-tagged Sgk (HA-Sgk) were isolated and the Sgk immunoprecipitated with HA antibodies was used to screen a synthetic peptide library for identifying potential Sgk substrates. The immunoprecipitates were extensively washed, and incubated with the peptide in the presence of [^32P]ATP in kinase buffer (Park et al 1999). Sgk phosphorylated several peptides, and the best substrate for Sgk was KKRNRRLSVA (SEQ ID NO:01), which is named Sgktide. […] This substrate specificity is generally similar to, but not identical, with the substrate specificity for Akt, which is a well characterized down stream component of the PI 3 kinase pathway.
as §1

mammary tumor cells = assay: Transient cell foci growth assay of transfected mammary tumor cells; type: cell-based; conditions: transfected expression vector
Excerpt: Functional evidence for a direct role of sgk in the glucocorticoid anti-proliferative pathway. In both the Con8 mammary epithelial tumor cells (from which Sgk was originally cloned) as well as human MCF-7 breast cancer cells (which were originally derived from a pleural effusion of a metastatic human breast adenocarcinoma) glucocorticoids induce a G1 block in cell cycle progression and strongly stimulate sgk transcript and protein production. […] To initially test whether Sgk has an anti-proliferative function and perhaps mediates the glucocorticoid growth inhibitory response, the full length rat or human wild type sgk cDNA was inserted downstream of the cytomegalovirus (CMV) promoter in an expression vector that also encodes the neomycin resistance gene. […] Transfection competent cells were selected in 0.5 mg/ml of the G418 neomycin derivative for two weeks.
Expression vectors encoding several point mutants or truncations of Sgk were transfected into the mammary tumor cells and cell growth monitored by the cell foci assay.
Transient transfection and rapid screen of the sgk expression vectors for the anti-proliferative response in rodent and human mammary tumor cells. A transient cell foci growth assay is employed to rapidly screen the various Sgk constructs to define the domains that mediate the anti-proliferative response in rat and human mammary tumor cells using our optimized conditions. The advantage of this assay is that many different mutant Sgk expression vectors can be simultaneously compared for their growth inhibitory effects. Also, this assay can be used to rapidly assess the proliferative effects of combinations of Sgk and its interacting proteins or substrates. Populations of human MCF-7 breast cancer cells or rat Con8 mammary tumor cells are transfected by the lipofectin transfection procedures and cultured in normally cytotoxic concentrations (750 μg/ml) of the G418 neomycin derivative to recover transfection competent cells. Approximately 5000 transfected cells are cultured as colonies on plastic, and after one to two weeks are fixed and stained in crystal violet/formalin to visualize the cell colonies. The effects on cell proliferation are quantitated by simply counting the resulting cell colonies or by scanning the total cell density on each plate. To provide a control for the fidelity of the cell foci assays, in each experiment, cells transfected with the control vectors (no Sgk sequences) are treated with or without 1 μM dexamethasone because the cells are growth suppressed by this synthetic glucocorticoid. […]

## COc1cccc(-c2cc(=O)c3ccccc3o2)c1N [PD98059]
Sgk and Erk/MAPK
  subcellular distribution of Sgk and Erk/MAPK: caused both Sgk and Erk/MAPK to localize to the cytoplasm

## Oc1ccc(-c2nc(-c3ccncc3)c(-c3ccc(F)cc3)[nH]2)cc1 [SB202190]
Sgk promoter
  hyperosmotic stress-stimulation of the Sgk promoter and Sgk protein production: dampens the hyperosmotic stress-stimulation of the Sgk promoter and Sgk protein production

## C[S+]([O-])c1ccc(-c2nc(-c3ccncc3)c(-c3ccc(F)cc3)[nH]2)cc1 (centres unmarked) [SB203580]
Sgk promoter
  hyperosmotic stress-stimulation of the Sgk promoter and Sgk protein production: dampens the hyperosmotic stress-stimulation of the Sgk promoter and Sgk protein production

## C=C1[C@@H](O)[C@@H]2O[C@]3(CC[C@H](/C=C/[C@@H](C)[C@@H]4CC(C)=C[C@@]5(O[C@H](C[C@@](C)(O)C(=O)O)CC[C@H]5O)O4)O3)CC[C@H]2O[C@@H]1[C@@H](O)C[C@H](C)[C@H]1O[C@@]2(CCCCO2)CC[C@H]1C [okadaic acid]
Endogenous Sgk
  generation of hyperphosphorylated form of Sgk: generates a hyperphosphorylated active Sgk

## IGF-1: hormonal activator of the PI 3-kinase pathway [reference compound]
Sgk
  effect of cell treatment on Sgk enzymatic activity: stimulated Sgk enzymatic activity

## insulin: hormonal activator of the PI 3-kinase pathway [reference compound]
Sgk
  effect of cell treatment on Sgk enzymatic activity: stimulated Sgk enzymatic activity

## pervanadate [reference compound]
Sgk
  effect of cell treatment on Sgk enzymatic activity: stimulated Sgk enzymatic activity

B1: N60–431: N-terminal truncated Sgk (protein, UniProt O00141 60-431, looked up, fragment)
chain: ISQPQEPELMNANPSPPPSPSQQINLGPSSNPHAKPSDFHFLKVIGKGSFGKVLLARHKAEEVFYAVKVLQKKAILKKKEEKHIMSERNVLLKNVKHPFLVGLHFSFQTADKLYFVLDYINGGELFYHLQRERCFLEPRARFYAAEIASALGYLHSLNIVYRDLKPENILLDSQGHIVLTDFGLCKENIEHNSTTSTFCGTPEYLAPEVLHKQPYDRTVDWWCLGAVLYEMLYGLPPFYSRNTAEMYDNILNKPLQLKPNITNSARHLLEGLLQKDRTKRLGAKDDFMEIKSHVFFSLINWDDLINKKITPPFNPNVSGPNDLRHFDPEFTEEPVPNSIGKSPDSVLVTASVKEAAEAFLGFSYAPPTDSFL
Mammary tumor cells
  effect on cell growth (cell foci assay): more effectively suppresses tumor cell growth compared to the full length Sgk protein

B2: T256D/S422D: Sgk double mutation T256D and S422D (protein, UniProt O00141 1-431, looked up, variant T256D S422D)
Serine/threonine-protein …: MTVKTEAAKGTLTYSRMRGMVAILIAFMKQRRMGLNDFIQKIANNSYACKHPEVQSILKISQPQEPELMNANPSPPPSPSQQINLGPSSNPHAKPSDFHFLKVIGKGSFGKVLLARHKAEEVFYAVKVLQKKAILKKKEEKHIMSERNVLLKNVKHPFLVGLHFSFQTADKLYFVLDYINGGELFYHLQRERCFLEPRARFYAAEIASALGYLHSLNIVYRDLKPENILLDSQGHIVLTDFGLCKENIEHNSTTSDFCGTPEYLAPEVLHKQPYDRTVDWWCLGAVLYEMLYGLPPFYSRNTAEMYDNILNKPLQLKPNITNSARHLLEGLLQKDRTKRLGAKDDFMEIKSHVFFSLINWDDLINKKITPPFNPNVSGPNDLRHFDPEFTEEPVPNSIGKSPDSVLVTASVKEAAEAFLGFDYAPPTDSFL
Sgk
  kinase activity / activation of Sgk mutant: not constitutively active

B3: S422A: Sgk with serine 422 changed to alanine (protein, UniProt O00141 1-431, looked up, variant S422A)
Serine/threonine-protein …: B2 Serine/threonine-protein … with D256T, D422A
Sgk
  kinase activity / activation of Sgk mutant: inhibited Sgk activation

B4: S422D: Sgk with serine 422 changed to aspartate (protein, UniProt O00141 1-431, looked up, variant S422D)
Serine/threonine-protein …: B2 Serine/threonine-protein … with D256T
Sgk
  kinase activity / activation of Sgk mutant: partially active

B5: T256D: Sgk with threonine 256 changed to aspartate (protein, UniProt O00141 1-431, looked up, variant T256D)
Serine/threonine-protein …: B2 Serine/threonine-protein … with D422S
Sgk
  kinase activity / activation of Sgk mutant: partially active

B6: T256A: Sgk with threonine 256 in the activation loop changed to alanine (protein, UniProt O00141 1-431, looked up, variant T256A)
Serine/threonine-protein …: B2 Serine/threonine-protein … with D256A, D422S
Mammary tumor cells; G418 selection
  reduction in number of cell foci compared to the vector control: 20 fold

B7: C1–355: C-terminal Sgk truncation missing the last 75 amino acids (protein, UniProt O00141 1-355, looked up, fragment)
chain: MTVKTEAAKGTLTYSRMRGMVAILIAFMKQRRMGLNDFIQKIANNSYACKHPEVQSILKISQPQEPELMNANPSPPPSPSQQINLGPSSNPHAKPSDFHFLKVIGKGSFGKVLLARHKAEEVFYAVKVLQKKAILKKKEEKHIMSERNVLLKNVKHPFLVGLHFSFQTADKLYFVLDYINGGELFYHLQRERCFLEPRARFYAAEIASALGYLHSLNIVYRDLKPENILLDSQGHIVLTDFGLCKENIEHNSTTSTFCGTPEYLAPEVLHKQPYDRTVDWWCLGAVLYEMLYGLPPFYSRNTAEMYDNILNKPLQLKPNITNSARHLLEGLLQKDRTKRLGAKDDFMEIKSHVFF
Mammary tumor cells
  effect on cell growth (cell foci assay): little or no effect on cell growth
